The source made the active and inactive calls. How the calls were made is not given here.
System: CCRIS mutagenicity, Ames/micronucleus/aberration tests
Experiment: CCRIS mutagenicity studies
[1] = Test System: AMES SALMONELLA TYPHIMURIUM, Strain/Indicator: TA98, Metabolic Activation: NONE, Method: STANDARD PLATE
[2] = Test System: AMES SALMONELLA TYPHIMURIUM, Strain/Indicator: TA100, Metabolic Activation: NONE, Method: STANDARD PLATE
[3] = Test System: AMES SALMONELLA TYPHIMURIUM, Strain/Indicator: TA98, Metabolic Activation: NONE, Method: PREINCUBATION
[4] = Test System: AMES SALMONELLA TYPHIMURIUM, Strain/Indicator: TA100, Metabolic Activation: NONE, Method: PREINCUBATION
[5] = Test System: AMES SALMONELLA TYPHIMURIUM, Strain/Indicator: TA100, Metabolic Activation: RAT, LIVER, S-9, AROCLOR 1254, Method: PREINCUBATION
[6] = Test System: AMES SALMONELLA TYPHIMURIUM, Strain/Indicator: TA100, Metabolic Activation: RAT, LIVER, S-9, AROCLOR 1254, Method: STANDARD PLATE

C[C@H]1C=C(C=O)[C@H](C=O)[C@@H](O)[C@@H]2CC(C)(C)C[C@@H]21
mutagenic call [1]: inactive; negative
mutagenic call [2]: inactive; negative
mutagenic call (Test System: AMES SALMONELLA TYPHIMURIUM, Strain/Indicator: TA2637, Metabolic Activation: NONE, Method: STANDARD PLATE): inactive; negative

C[C@H](CCC(=O)O)[C@H]1CC[C@H]2[C@@H]3CC[C@@H]4C[C@H](O)CC[C@]4(C)[C@H]3CC(=O)[C@]12C
mutagenic call (Test System: AMES SALMONELLA TYPHIMURIUM, Strain/Indicator: TA98, Metabolic Activation: NONE, Method: FLUCTUATION TEST): inactive; negative
mutagenic call [3]: inactive; negative
mutagenic call (Test System: AMES SALMONELLA TYPHIMURIUM, Strain/Indicator: TA98, Metabolic Activation: RAT, LIVER, S-9, PCB, Method: PREINCUBATION): inactive; negative
mutagenic call (Test System: AMES SALMONELLA TYPHIMURIUM, Strain/Indicator: TA100, Metabolic Activation: NONE, Method: FLUCTUATION TEST): inactive; negative

Clc1cccc(Cl)c1Cl
mutagenic call (Test System: AMES SALMONELLA TYPHIMURIUM, Strain/Indicator: TA98, Metabolic Activation: HAMSTER, LIVER, S-9, AROCLOR 1254, Method: PREINCUBATION): inactive; negative
mutagenic call [3]: inactive; negative
mutagenic call (Test System: AMES SALMONELLA TYPHIMURIUM, Strain/Indicator: TA98, Metabolic Activation: RAT, LIVER, S-9, AROCLOR 1254, Method: PREINCUBATION): inactive; negative
mutagenic call (Test System: AMES SALMONELLA TYPHIMURIUM, Strain/Indicator: TA100, Metabolic Activation: HAMSTER, LIVER, S-9, AROCLOR 1254, Method: PREINCUBATION): inactive; negative
mutagenic call [4]: inactive; negative
mutagenic call [5]: inactive; negative
mutagenic call (Test System: AMES SALMONELLA TYPHIMURIUM, Strain/Indicator: TA1535, Metabolic Activation: HAMSTER, LIVER, S-9, AROCLOR 1254, Method: PREINCUBATION): inactive; negative
mutagenic call (Test System: AMES SALMONELLA TYPHIMURIUM, Strain/Indicator: TA1535, Metabolic Activation: NONE, Method: PREINCUBATION): inactive; negative
mutagenic call (Test System: AMES SALMONELLA TYPHIMURIUM, Strain/Indicator: TA1535, Metabolic Activation: RAT, LIVER, S-9, AROCLOR 1254, Method: PREINCUBATION): inactive; negative
mutagenic call (Test System: AMES SALMONELLA TYPHIMURIUM, Strain/Indicator: TA1537, Metabolic Activation: HAMSTER, LIVER, S-9, AROCLOR 1254, Method: PREINCUBATION): inactive; negative
mutagenic call (Test System: AMES SALMONELLA TYPHIMURIUM, Strain/Indicator: TA1537, Metabolic Activation: NONE, Method: PREINCUBATION): inactive; negative
mutagenic call (Test System: AMES SALMONELLA TYPHIMURIUM, Strain/Indicator: TA1537, Metabolic Activation: RAT, LIVER, S-9, AROCLOR 1254, Method: PREINCUBATION): inactive; negative

Cc1ccc(C)c2c3c(ccc12)C(O)C(O)C1OC31 (stereo not drawn)
mutagenic call [1]: active; positive
mutagenic call [2]: active; positive

Cc1ncc([N+](=O)[O-])n1CC(=O)O
mutagenic call [2]: active; positive
mutagenic call [6]: inactive; negative

O[C@H]1C=Cc2ccc3nc4ccc5ccccc5c4cc3c2[C@@H]1O
mutagenic call (Test System: AMES SALMONELLA TYPHIMURIUM, Strain/Indicator: TA98, Metabolic Activation: GUINEA PIG, LIVER, S-9, 3-METHYLCHOLANTHRENE, Method: STANDARD PLATE): active; positive
mutagenic call (Test System: AMES SALMONELLA TYPHIMURIUM, Strain/Indicator: TA100, Metabolic Activation: GUINEA PIG, LIVER, S-9, 3-METHYLCHOLANTHRENE, Method: STANDARD PLATE): active; positive
mutagenic call (Test System: CHINESE HAMSTER V-79, Strain/Indicator: V-79/6-THIOGUANINE, Metabolic Activation: GUINEA PIG, LIVER, S-9, 3-METHYLCHOLANTHRENE): active; positive

C=CCNC(N)=O
mutagenic call (Test System: AMES SALMONELLA TYPHIMURIUM, Strain/Indicator: TA98, Metabolic Activation: HAMSTER, LIVER, S-9, AROCLOR 1254 (30%), Method: PREINCUBATION): inactive; negative
mutagenic call [3]: inactive; negative
mutagenic call (Test System: AMES SALMONELLA TYPHIMURIUM, Strain/Indicator: TA100, Metabolic Activation: HAMSTER, LIVER, S-9, AROCLOR 1254 (5, 10 OR 30%), Method: PREINCUBATION): inactive; negative
mutagenic call [4]: inactive; negative
mutagenic call (Test System: AMES SALMONELLA TYPHIMURIUM, Strain/Indicator: TA100, Metabolic Activation: RAT, LIVER, S-9, AROCLOR 1254 (30%), Method: PREINCUBATION): inactive; negative
mutagenic call (Test System: AMES SALMONELLA TYPHIMURIUM, Strain/Indicator: TA1535, Metabolic Activation: HAMSTER, LIVER, S-9, AROCLOR 1254 (5 OR 10%), Method: PREINCUBATION): inactive; negative
mutagenic call (Test System: AMES SALMONELLA TYPHIMURIUM, Strain/Indicator: TA1535, Metabolic Activation: HAMSTER, LIVER, S-9, AROCLOR 1254 (30%), Method: PREINCUBATION): active; positive

C[C@@H](Br)C(=O)NCc1ccccc1
mutagenic call [2]: active; positive

Cc1cc2ccccc2c2cc3c(cc12)C=C[C@H](O)[C@H]3O
mutagenic call [5]: active; positive

CC(=O)N(CC(O)CN(C(C)=O)c1c(I)c(C(=O)NCC(O)CO)c(I)c(C(=O)NCC(O)CO)c1I)c1c(I)c(C(=O)NCC(O)CO)c(I)c(C(=O)NCC(O)CO)c1I (stereo not drawn)
mutagenic call [1]: inactive; negative
mutagenic call (Test System: AMES SALMONELLA TYPHIMURIUM, Strain/Indicator: TA98, Metabolic Activation: RAT, LIVER, S-9, AROCLOR 1254, Method: STANDARD PLATE): inactive; negative
mutagenic call [2]: inactive; negative
mutagenic call [6]: inactive; negative
mutagenic call (Test System: AMES SALMONELLA TYPHIMURIUM, Strain/Indicator: TA1535, Metabolic Activation: NONE, Method: STANDARD PLATE): inactive; negative
mutagenic call (Test System: AMES SALMONELLA TYPHIMURIUM, Strain/Indicator: TA1535, Metabolic Activation: RAT, LIVER, S-9, AROCLOR 1254, Method: STANDARD PLATE): inactive; negative
mutagenic call (Test System: AMES SALMONELLA TYPHIMURIUM, Strain/Indicator: TA1537, Metabolic Activation: NONE, Method: STANDARD PLATE): inactive; negative
mutagenic call (Test System: AMES SALMONELLA TYPHIMURIUM, Strain/Indicator: TA1537, Metabolic Activation: RAT, LIVER, S-9, AROCLOR 1254, Method: STANDARD PLATE): inactive; negative
mutagenic call (Test System: AMES SALMONELLA TYPHIMURIUM, Strain/Indicator: TA1538, Metabolic Activation: NONE, Method: STANDARD PLATE): inactive; negative
mutagenic call (Test System: AMES SALMONELLA TYPHIMURIUM, Strain/Indicator: TA1538, Metabolic Activation: RAT, LIVER, S-9, AROCLOR 1254, Method: STANDARD PLATE): inactive; negative
mutagenic call (Test System: E. COLI, Strain/Indicator: WP2 UVRA, Metabolic Activation: NONE, Method: STANDARD PLATE): inactive; negative
mutagenic call (Test System: E. COLI, Strain/Indicator: WP2 UVRA, Metabolic Activation: RAT, LIVER, S-9, AROCLOR 1254, Method: STANDARD PLATE): inactive; negative

Cc1cc2ccccc2c2ccc3c(c12)[C@H]1O[C@H]1[C@@H](O)[C@H]3O
mutagenic call [4]: active; positive
